Data: ChEMBL document CHEMBL1126719, “The solution conformation of (D)Phe-Pro-containing peptides: implications on the activity of Ac-(D)Phe-Pro-boroArg-OH, a potent thrombin inhibitor” (J Med Chem, 1993)

Target: Prothrombin (Homo sapiens, UniProt P00734)
Experiment: Inhibition constant for binding with thrombin was determined

| Structure (SMILES) | Ki [nM] |
| --- | --- |
| CC(C)(C)OC(=O)N[C@H](Cc1ccccc1)C(=O)N1CCC[C@H]1C(=O)NC(CCCN=C(N)N)B(O)O (stereo not given in full) | 0.004 |
| CC(=O)N1CCC[C@H]1C(=O)NC(CCCN=C(N)N)B(O)O (stereo not given in full) | 3.3 |
| CC(=O)NCC(=O)NC(CCCN=C(N)N)B(O)O (stereo not given) | 26 |

More lines, now with the values ahead:

| Ki [nM] | Structure (SMILES) |
| --- | --- |
| 0.4 | CC(C)(C)OC(=O)N[C@H](Cc1ccccc1)C(=O)NCC(=O)NC(CCCN=C(N)N)B(O)O (stereo not given in full) |
| 4.3 | CC(=O)N[C@H](Cc1ccccc1)C(=O)NCC(=O)NC(CCCN=C(N)N)B(O)O (stereo not given in full) |
